# Experimental data as given in patent publication US8597875B2, “Method for diagnosing liver toxicity with sex specific biomarkers” (BASF SE, priority 2008, dated 2013).
# Key:
# male rats = assay: Plasma metabolite profiling (GC-MS/LC-MS) for liver toxicity markers, 28-day gavage study, male rats; assay type: in vivo, rat; details: male rats
# Procedure: (§1) A group of each 5 male and female rats was dosed once daily with the indicated compounds (see tables below) at 10 and 100 mg/kg body weight per gavage over 28 days. Additional groups of each 5 male and female animals served as controls. Before starting the treatment period, animals, which were 62-64 days old when supplied, were acclimatized to the housing and environmental conditions for 7 days. All animals of the animal population were kept under the same constant temperature (20-24±3° C.) and the same constant humidity (30-70%). Each animal of the animal population was kept in a separate cage. The animals of the animal population are fed ad libitum. The food to be used was be essentially free of chemical or microbial contaminants. Drinking water was also offered ad libitum. Accordingly, the water was be free of chemical and microbial contaminants as laid down in the European Drinking Water Directive 98/83/EG. The illumination period was 12 hours light followed by 12 hours darkness (12 hours light, from 6:00 to 18:00, and 12 hours darkness, from 18:00 to 6:00).
# (§2) In the morning of day 7, 14, and 28, blood was taken from the retroorbital venous plexus from fasted anaesthetized animals. From each animal, 1 ml of blood was collected with EDTA as anticoagulant. The samples were be centrifuged for generation of plasma. All plasma samples were covered with a N2 atmosphere and then stored at −80° C. until analysis.
# (§3) For mass spectrometry-based metabolite profiling analyses plasma samples were extracted and a polar and a non-polar fraction was obtained. For GC-MS analysis, the non-polar fraction was treated with methanol under acidic conditions to yield the fatty acid methyl esters. Both fractions were further derivatised with O-methyl-hydroxyamine hydrochloride and pyridine to convert Oxo-groups to O-methyloximes and subsequently with a silylating agent before analysis. In LC-MS analysis, both fractions were reconstituted in appropriate solvent mixtures. HPLC was performed by gradient elution on reversed phase separation columns. For mass spectrometric detection metanomics proprietary technology was applied which allows target and high sensitivity MRM (Multiple Reaction Monitoring) profiling in parallel to a full screen analysis.
# (§4) Following comprehensive analytical validation steps, the data for each analyte were normalized against data from pool samples. These samples were run in parallel through the whole process to account for process variability. The significance of treatment group values specific for sex, dose group and metabolite was determined by comparing means of the treated groups to the means of the respective untreated control groups using WELCH-test. Normalized treatment group values and their significance were fed into a database for further statistics and data mining processes.
# (§5) The changes of the group of plasma metabolites being indicative for liver toxicity after treatment of the rats are shown in the following tables: […]
# female rats = assay: Plasma metabolite profiling (GC-MS/LC-MS) for liver toxicity markers, 28-day gavage study, female rats; assay type: in vivo, rat; details: female rats, fh7 (day 7)
# Procedure: as §1, §2, §3, §4, §5
structure (smiles),measurement,setting,value
C1CCOC1 [Tetrahydrofuran],"1,2-Dioleoyl-sn-glycero-3-phosphatidyl-L-serine, change of plasma metabolite",male rats; mh7 (day 7),1.70
same,"4-Hydroxysphingosine, change of plasma metabolite",male rats; mh7 (day 7),2.67
same,"Arachidonic acid (C20:cis-[5,8,11,14]4), change of plasma metabolite",male rats; mh7 (day 7),1.71
same,"Behenic acid (C22:0), change of plasma metabolite",male rats; mh7 (day 7),1.35
same,"Ceramide (d18:1, C24:0), change of plasma metabolite",male rats; mh7 (day 7),1.37
same,"Ceramide (d18:1, C24:1), change of plasma metabolite",male rats; mh7 (day 7),1.53
same,"Cholesterol, change of plasma metabolite",male rats; mh7 (day 7),1.81
same,"Docosahexaenoic acid (C22:cis[4,7,10,13,16,19]6), change of plasma metabolite",male rats; mh7 (day 7),2.52
same,"Eicosatrienoic acid, change of plasma metabolite",male rats; mh7 (day 7),3.13
same,"Glycerolphosphate, lipid fraction, change of plasma metabolite",male rats; mh7 (day 7),1.94
same,"Heptadecanoic acid (C17:0), change of plasma metabolite",male rats; mh7 (day 7),1.52
same,"Lignoceric acid (C24:0), change of plasma metabolite",male rats; mh7 (day 7),1.62
same,"Linoleic acid (C18:cis[9,12]2), change of plasma metabolite",male rats; mh7 (day 7),1.52
same,"Nervonic acid (C24:1), change of plasma metabolite",male rats; mh7 (day 7),1.88
same,"Palmitic acid (C16:0), change of plasma metabolite",male rats; mh7 (day 7),1.48
same,"Phosphatidylcholine (C18:0/C22:6), change of plasma metabolite",male rats; mh7 (day 7),1.83
same,"Phosphatidylcholine (C18:2, C20:4), change of plasma metabolite",male rats; mh7 (day 7),1.52
same,"Sphingomyelin (d18:1, C16:0), change of plasma metabolite",male rats; mh7 (day 7),1.46
same,"Tricosanoic acid (C23:0), change of plasma metabolite",male rats; mh7 (day 7),1.51
same,"alpha-Tocopherol, change of plasma metabolite",male rats; mh7 (day 7),2.61
same,"myo-Inositol-2-monophosphate, lipid fraction, change of plasma metabolite",male rats; mh7 (day 7),1.70
same,"1,2-Dioleoyl-sn-glycero-3-phosphatidyl-L-serine, change of plasma metabolite",male rats; mh14 (day 14),1.81
same,"4-Hydroxysphingosine, change of plasma metabolite",male rats; mh14 (day 14),2.56
same,"Arachidonic acid (C20:cis-[5,8,11,14]4), change of plasma metabolite",male rats; mh14 (day 14),1.64
same,"Behenic acid (C22:0), change of plasma metabolite",male rats; mh14 (day 14),1.77
same,"Ceramide (d18:1, C24:0), change of plasma metabolite",male rats; mh14 (day 14),1.55
same,"Ceramide (d18:1, C24:1), change of plasma metabolite",male rats; mh14 (day 14),1.48
same,"Cholesterol, change of plasma metabolite",male rats; mh14 (day 14),1.98
same,"Docosahexaenoic acid (C22:cis[4,7,10,13,16,19]6), change of plasma metabolite",male rats; mh14 (day 14),2.37
same,"Eicosatrienoic acid, change of plasma metabolite",male rats; mh14 (day 14),3.76
same,"Glycerolphosphate, lipid fraction, change of plasma metabolite",male rats; mh14 (day 14),1.93
same,"Heptadecanoic acid (C17:0), change of plasma metabolite",male rats; mh14 (day 14),1.54
same,"Lignoceric acid (C24:0), change of plasma metabolite",male rats; mh14 (day 14),1.71
same,"Linoleic acid (C18:cis[9,12]2), change of plasma metabolite",male rats; mh14 (day 14),1.46
same,"Nervonic acid (C24:1), change of plasma metabolite",male rats; mh14 (day 14),1.87
same,"Palmitic acid (C16:0), change of plasma metabolite",male rats; mh14 (day 14),1.49
same,"Phosphatidylcholine (C18:0/C22:6), change of plasma metabolite",male rats; mh14 (day 14),1.71
same,"Phosphatidylcholine (C18:2, C20:4), change of plasma metabolite",male rats; mh14 (day 14),1.46
same,"Sphingomyelin (d18:1, C16:0), change of plasma metabolite",male rats; mh14 (day 14),1.45
same,"Tricosanoic acid (C23:0), change of plasma metabolite",male rats; mh14 (day 14),1.74
same,"alpha-Tocopherol, change of plasma metabolite",male rats; mh14 (day 14),2.23
same,"myo-Inositol-2-monophosphate, lipid fraction, change of plasma metabolite",male rats; mh14 (day 14),2.40
same,"1,2-Dioleoyl-sn-glycero-3-phosphatidyl-L-serine, change of plasma metabolite",male rats; mh28 (day 28),1.84
same,"4-Hydroxysphingosine, change of plasma metabolite",male rats; mh28 (day 28),2.64
same,"Arachidonic acid (C20:cis-[5,8,11,14]4), change of plasma metabolite",male rats; mh28 (day 28),1.76
same,"Behenic acid (C22:0), change of plasma metabolite",male rats; mh28 (day 28),1.65
same,"Ceramide (d18:1, C24:0), change of plasma metabolite",male rats; mh28 (day 28),1.40
same,"Ceramide (d18:1, C24:1), change of plasma metabolite",male rats; mh28 (day 28),1.18
same,"Cholesterol, change of plasma metabolite",male rats; mh28 (day 28),2.03
same,"Docosahexaenoic acid (C22:cis[4,7,10,13,16,19]6), change of plasma metabolite",male rats; mh28 (day 28),2.02
same,"Eicosatrienoic acid, change of plasma metabolite",male rats; mh28 (day 28),3.77
same,"Glycerolphosphate, lipid fraction, change of plasma metabolite",male rats; mh28 (day 28),2.15
same,"Heptadecanoic acid (C17:0), change of plasma metabolite",male rats; mh28 (day 28),1.51
same,"Lignoceric acid (C24:0), change of plasma metabolite",male rats; mh28 (day 28),1.57
same,"Linoleic acid (C18:cis[9,12]2), change of plasma metabolite",male rats; mh28 (day 28),1.50
same,"Nervonic acid (C24:1), change of plasma metabolite",male rats; mh28 (day 28),1.97
same,"Palmitic acid (C16:0), change of plasma metabolite",male rats; mh28 (day 28),1.36
same,"Phosphatidylcholine (C18:0/C22:6), change of plasma metabolite",male rats; mh28 (day 28),1.32
same,"Phosphatidylcholine (C18:2, C20:4), change of plasma metabolite",male rats; mh28 (day 28),1.18
same,"Sphingomyelin (d18:1, C16:0), change of plasma metabolite",male rats; mh28 (day 28),1.39
same,"Tricosanoic acid (C23:0), change of plasma metabolite",male rats; mh28 (day 28),1.55
same,"alpha-Tocopherol, change of plasma metabolite",male rats; mh28 (day 28),2.15
same,"myo-Inositol-2-monophosphate, lipid fraction, change of plasma metabolite",male rats; mh28 (day 28),2.70
same,"1,2-Dioleoyl-sn-glycero-3-phosphatidyl-L-serine, change of plasma metabolite",female rats,1.49
same,"4-Hydroxysphinganine, change of plasma metabolite",female rats,1.98
same,"Arachidonic acid (C20:cis-[5,8,11,14]4), change of plasma metabolite",female rats,1.85
same,"Behenic acid (C22:0), change of plasma metabolite",female rats,1.52
same,"Ceramide (d18:1, C24:0), change of plasma metabolite",female rats,1.85
same,"Cholesterol, change of plasma metabolite",female rats,2.18
same,"Docosahexaenoic acid (C22:cis[4,7,10,13,16,19]6), change of plasma metabolite",female rats,3.22
same,"Glycerol, lipid fraction, change of plasma metabolite",female rats,1.89
same,"Glycerolphosphate, lipid fraction, change of plasma metabolite",female rats,1.77
same,"Heptadecanoic acid (C17:0), change of plasma metabolite",female rats,1.72
same,"ID28x493, change of plasma metabolite",female rats,2.44
same,"Lignoceric acid (C24:0), change of plasma metabolite",female rats,1.59
same,"Linoleic acid (C18:cis[9,12]2), change of plasma metabolite",female rats,2.43
same,"Nervonic acid (C24:1), change of plasma metabolite",female rats,1.54
same,"Palmitic acid (C16:0), change of plasma metabolite",female rats,1.97
same,"Phosphate, lipid (Phospholipids), change of plasma metabolite",female rats,1.37
same,"Stearic acid (C18:0), change of plasma metabolite",female rats,1.60
same,"TAG No 1, change of plasma metabolite",female rats,1.66
same,"Threonic acid, change of plasma metabolite",female rats,1.92
same,"Tricosanoic acid (C23:0), change of plasma metabolite",female rats,1.80
